US20250186410A1, “DUAL INHIBITORS OF TRYPTOPHAN DIOXYGENASES (IDO1 AND TDO) AND THEIR USE IN THERAPY” (ANTIDO THERAPEUTICS INTERNATIONAL SÀRL, priority 2022, published 2025)

Assays:
[1] = test system: immune cells in Pan02 tumors; assay: FACS analysis of Pan02 tumors; type: in vivo, mouse; details: Day 34, oxaliplatin 6 mg/kg i.p. BIW, AT-0174 120 mg/kg p.o. QD
Protocol: On Day 34, all tumor-bearing mice were sacrificed, and tumors were collected for FACS analysis. FACS panels were:
Panel A: L/D, CD45, CD3, CD4, CD8, CD11b, CD25, IFN-γ, Foxp3.
Panel B: L/D, CD45, CD3, CD11b, NKG2D, F4/80.
Flow cytometry was conducted using a Beckman Cytoflex LX and antibodies from Thermofisher and Biolegend, using standard methods.

Pan02 tumors = assay: Tumor volume, mouse subcutaneous Pan02 syngeneic model of pancreatic cancer; type: in vivo; details: for tumor volume, Mean: oxaliplatin 6 mg/kg i.p. BIW, AT-0174 120 mg/kg p.o. QD Day 7-32
Protocol: (§1) Female C57BL/6 mice were used in the study, with ad libitum access to rodent food and water throughout the study period.
(§2) Murine pancreatic Pan02 cancer cells were cultured in a 37° C. incubator containing 5% CO2 with 10% FBS in DMEM medium. The cells were sub-cultured within 10 passages before inoculated into the mice. 1*10^6 PANC02 cells in 100 μL serum-free medium mixed with Matrigel (v/v 1:1) were subcutaneously inoculated at the right flank of each mouse under anesthetized with 2-5% isoflurane before inoculation.
Tumor volume: The tumor volume (V) was calculated as follows: V=(length×width^2)/2. Tumor volume was measured and recorded three times per week after grouping.
The individual relative tumor volume (RTV) was calculated as follows: RTV=Vt/V0, where Vt is the volume on each day, and V0 is the volume at the beginning of the treatment.

[2] = Body weight and clinical observations, Pan02 syngeneic model; type: in vivo, mouse; details: for Body weight, Mean: oxaliplatin 6 mg/kg i.p. BIW, AT-0174 120 mg/kg p.o. QD Day 7-32
Protocol: as §1, §2
Body weight: Mice body weights were measured and recorded three times per week after grouping. Animals were also weighed in the event of accidental death or near-death euthanasia.

LLC-CR cells = details: cited from earlier work
[3] = test system: LLC (mouse Lewis lung cancer cells); assay: Growth inhibition of parental LLC cells; type: cell-based; details: 24 h
Protocol: Cisplatin resistant mouse cell lines (LLC-CR) were derived from LLC (mouse Lewis lung cancer cells (epidermoid carcinoma), ATCC) through treatment with increasing doses of cisplatin intermittently. LLC-CR clones were maintained in half GI50 dosage concentration. […] The cultures were observed daily and allowed to grow until they reached an initial cell density. […] After the cells recovered from cisplatin toxicity, they were treated again with increasing dosage of cisplatin for 24 h. These cells are seeded at 500-1000 cells per dish and cultured for 5-7 days. Clones are selected and expanded as well as tested for cisplatin sensitivity. Similar processes of exposure are carried out for a third and fourth time to generate higher resistant clones. At the end, the resistance clones (LLC-CR) were maintained in media completed with 1 μg/ml (half GI50 dosage) of cisplatin.

Compound: O=C1[O][Pt]2([NH][C@@H]3CCCC[C@H]3[NH]2)[O]C1=O [Oxaliplatin]
- CD4+ Tregs [1]: 25.40%
- CD8+ CD3+ Tcells [1]: 31.62%
- tumor volume, Mean (Pan02 tumors; Pan02, day 0): 63.84 mm^3
- tumor volume, Mean (Pan02 tumors; Pan02, day 4): 80.36 mm^3
- tumor volume, Mean (Pan02 tumors; Pan02, day 7): 108.77 mm^3
- tumor volume, Mean (Pan02 tumors; Pan02, day 11): 152.24 mm^3
- tumor volume, Mean (Pan02 tumors; Pan02, day 14): 250.08 mm^3
- tumor volume, Mean (Pan02 tumors; Pan02, day 18): 410.18 mm^3
- tumor volume, Mean (Pan02 tumors; Pan02, day 21): 601.42 mm^3
- tumor volume, Mean (Pan02 tumors; Pan02, day 25): 735.54 mm^3
- tumor volume, Mean (Pan02 tumors; Pan02, day 28): 912.95 mm^3
- tumor volume, Mean (Pan02 tumors; Pan02, day 32): 1316.29 mm^3
- tumor volume, Mean (Pan02 tumors; Pan02, day 34): 1507.92 mm^3
- anti-tumor response (Pan02 tumors; Pan02 model, compared with the vehicle group): little anti-tumor response
- Body weight, Mean ([2]; Pan02, day 4): 21.21 g
- Body weight, Mean ([2]; Pan02, day 11): 21.10 g
- Body weight, Mean ([2]; Pan02, day 25): 23.00 g
- Body weight, Mean ([2]; Pan02, day 28): 22.00 g
- Body weight, Mean ([2]; Pan02, day 32): 22.65 g
- Body weight, Mean ([2]; Pan02, day 34): 23.31 g
- body weight loss / tolerability ([2]; Pan02 model): Slight body weight loss

Compound: N.N.[Cl][Pt][Cl] [cisplatin]
- GI50 concentration in resistant clones (LLC-CR cells; LLC-CR cells): ~2 µg/mL
- fold resistance of LLC-CR (LLC-CR cells; LLC-CR versus parental LLC): 3-5 fold
- 50% growth inhibition (GI50) concentration [3]: 0.4 µg/mL
